Data reported in patent publication US20250034150A1, “BTK INHIBITORS” (BIOGEN MA INC., priority 2021, published 2025).
Where a name gives a salt, the structure may show the parent alone.

Biological target: T1, BTK (Homo sapiens, UniProt Q06187)
T1 construct: purchased Upstate 14-552
Assay: In Vitro BTK Kinase Assay: Btk-PolyGAT-LS Assay
Type: biochemical
Settings: active BTK enzyme 0.25 nM, polyGAT 100 nM, 30 minutes, TRF readout; read-out: In Vitro BTK Kinase Assay IC50 Score
Protocol: The purpose of the BTK in vitro assay is to determine compound potency against BTK through the measurement of IC50. Compound inhibition is measured after monitoring the amount of phosphorylation of a fluorescein-labeled polyGAT peptide (Invitrogen PV3611) in the presence of active BTK enzyme (Upstate 14-552), ATP, and inhibitor. The BTK kinase reaction was done in a black 96 well plate (costar 3694). For a typical assay, a 24 μL aliquot of a ATP/peptide master mix (final concentration; ATP […], polyGAT 100 nM) in kinase buffer (10 mM Tris-HCl pH 7.5, 10 mM MgCl2, 200 μM […], 5 mM DTT, 0.01% Triton X-100, and 0.2 mg/ml casein) is added to each well. Next, […] of a 4-fold, 40× compound titration in 100% DMSO solvent is added, followed by adding 15 μL of BTK enzyme mix in 1× kinase buffer (with a final concentration of 0.25 nM). The assay is incubated for 30 minutes before being stopped with 28 μL of a 50 mM EDTA solution. Aliquots (5 uL) of the kinase reaction are transferred to a low volume white 384 well plate (Coming 3674), and 5 μL of a 2× detection buffer (Invitrogen PV3574, with 4 nM Tb—PY20 antibody, Invitrogen PV3552) is added. The plate is covered and incubated for 45 minutes at room temperature. Time resolved fluorescence (TRF) on Molecular Devices M5 (332 nm excitation; 488 nm emission; 518 nm fluorescein emission) is measured. IC50 values are calculated using a four parameter fit with 100% enzyme activity determined from the DMSO control and 0% activity from the EDTA control.

T1 sequence (Q06187 whole entry): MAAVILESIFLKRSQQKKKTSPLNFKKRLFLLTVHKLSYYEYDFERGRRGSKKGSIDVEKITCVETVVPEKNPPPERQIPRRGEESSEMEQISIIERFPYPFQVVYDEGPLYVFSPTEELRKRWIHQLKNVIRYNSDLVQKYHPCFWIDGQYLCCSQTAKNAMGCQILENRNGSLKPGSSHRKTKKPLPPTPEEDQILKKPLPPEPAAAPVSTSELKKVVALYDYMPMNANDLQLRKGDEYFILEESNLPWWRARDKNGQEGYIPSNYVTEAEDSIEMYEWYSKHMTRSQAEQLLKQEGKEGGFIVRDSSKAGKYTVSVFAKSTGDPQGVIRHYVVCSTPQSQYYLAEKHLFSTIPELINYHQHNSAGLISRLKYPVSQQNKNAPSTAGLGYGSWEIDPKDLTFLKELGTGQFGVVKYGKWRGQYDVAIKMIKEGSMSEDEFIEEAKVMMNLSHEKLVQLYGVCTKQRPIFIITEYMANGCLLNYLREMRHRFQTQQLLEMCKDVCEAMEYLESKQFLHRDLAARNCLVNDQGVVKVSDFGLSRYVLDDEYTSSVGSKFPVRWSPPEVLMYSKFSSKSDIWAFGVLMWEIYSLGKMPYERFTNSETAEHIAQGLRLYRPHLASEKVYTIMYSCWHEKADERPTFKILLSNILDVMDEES

Row | Structure (SMILES) | IC50
1 | CC(C)(C)c1nnc(C(=O)NCc2ccc(-c3nc(N4CCOCC4)cn4nccc34)cc2)o1 [Example 29, 5-(tert-butyl)-N-(4-(6-morpholinopyrazolo[1,5-a]pyrazin-4-yl)benzyl)-1,3,4-oxadiazole-2-carboxamide] | 1000 to 10000 nM
2 | CN1CCN(c2cn3nccc3c(-c3ccc(CNC(=O)c4coc(C(C)(C)C)n4)c(F)c3)n2)CC1 [Example 129, 2-(tert-butyl)-N-(2-fluoro-4-(6-(4-methylpiperazin-1-yl)pyrazolo[1,5-alpyrazin-4-yl)benzyl)oxazole-4-carboxamide trifluoroacetate] | 10 to 1000 nM
3 | Cn1cc(-c2cn3nccc3c(N3CC4CCC(C3)C4CNC(=O)c3noc(C(C)(C)C)n3)n2)cn1 [Example 165, 5-(tert-butyl)-N-(((1R,5S,8r)-3-(6-(1-methyl-1H-pyrazol-4-yl)pyrazolo[1,5-a]pyrazin-4-yl)-3-azabicyclo[3.2.1]octan-8-yl)methyl)-1,2,4-oxadiazole-3-carboxamide] | 10 to 1000 nM
4 | Cn1cc(-c2cc(-c3ccc(CNC(=O)c4cn(C(C)(C)C)nn4)cc3)n3cnnc3c2)cn1 [Example 75, 1-(tert-butyl)-N-(4-(7-(1-methyl-1H-pyrazol-4-yl)-[1,2,4]triazolo[4,3-a]pyridin-5-yl)benzyl)-1H-1,2,3-triazole-4-carboxamide] | 10 to 1000 nM
5 | Cn1cc(-c2cn3nccc3c(N3CCC(C)(CNC(=O)c4noc(C(C)(C)C)n4)C3)n2)cn1 (centres unmarked) [Example 42, 5-(tert-butyl)-N-((3-methyl-1-(6-(1-methyl-1H-pyrazol-4-yl)pyrazolo[1,5-a]pyrazin-4-yl)pyrrolidin-3-yl)methyl)-1,2,4-oxadiazole-3-carboxamide] | 1000 to 10000 nM
6 | CC(C)(C)n1cc(C(=O)NCc2ccc(-c3nc(N4CCOCC4)cn4nccc34)cc2)cn1 [Example 27, 1-(tert-butyl)-N-(4-(6-morpholinopyrazolo[1,5-a]pyrazin-4-yl)benzyl)-1H-pyrazole-4-carboxamide] | 1000 to 10000 nM
7 | CC(C)(C)c1nc(C(=O)NCc2ccc(-c3nc(N4CCOCC4)cn4nccc34)cc2F)co1 [Example 125, 2-(tert-butyl)-N-(2-fluoro-4-(6-morpholinopyrazolo[1,5-a]pyrazin-4-yl)benzyl)oxazole-4-carboxamide] | 10 to 1000 nM
8 | CC(NC(=O)c1cn(C(C)(C)C)nn1)C1CCN(c2nc(-c3cnn(C)c3)cn3nccc23)CC1 (centres unmarked) [Example 163, 1-(tert-butyl)-N-(1-(1-(6-(1-methyl-1H-pyrazol-4-yl)pyrazolo[1,5-a]pyrazin-4-yl)piperidin-4-yl)ethyl)-1H-1,2,3-triazole-4-carboxamide] | 10 to 1000 nM
9 | Cn1cc(-c2cn3nccc3c(N3CCC(C)(CNC(=O)c4noc(C5(C)CC5)n4)C3)n2)cn1 (centres unmarked) [Example 51, N-((3-methyl-1-(6-(1-methyl-1H-pyrazol-4-yl)pyrazolo[1,5-a]pyrazin-4-yl)pyrrolidin-3-yl)methyl)-5-(1-methylcyclopropyl)-1,2,4-oxadiazole-3-carboxamide] | 1000 to 10000 nM
10 | Cn1cc(-c2cn3nccc3c(N3CCCC(CNC(=O)c4noc(C(C)(C)C)n4)CC3)n2)cn1 (centres unmarked) [Example 166, 5-(tert-butyl)-N-((1-(6-(1-methyl-1H-pyrazol-4-yl)pyrazolo[1,5-a]pyrazin-4-yl)azepan-4-yl)methyl)-1,2,4-oxadiazole-3-carboxamide] | 10 to 1000 nM
11 | C[C@@H]1CN(c2nc(-c3cnn(C)c3)cn3nccc23)CC[C@@H]1CNC(=O)c1cn(C(C)(C)C)nn1 (single isomer, unassigned) [Example 150] | 10 to 1000 nM
12 | Cn1cc(-c2cn3nccc3c(N3CCC(F)(CNC(=O)c4cn(C(C)(C)C)nn4)CC3)n2)cn1 [Example 162, 1-(tert-butyl)-N-((4-fluoro-1-(6-(1-methyl-1H-pyrazol-4-yl)pyrazolo[1,5-a]pyrazin-4-yl)piperidin-4-yl)methyl)-1H-1,2,3-triazole-4-carboxamide trifluoroacetate] | 10 to 1000 nM
13 | Cn1cc(-c2cn3nccc3c(N3CCC4(CC(NC(=O)c5noc(C(C)(C)C)n5)C4)C3)n2)cn1 (single isomer, unassigned) [Example 54, 5-(tert-butyl)-N-((2s,4r)-6-(6-(1-methyl-1H-pyrazol-4-yl)pyrazolo[1,5-a]pyrazin-4-yl)-6-azaspiro[3.4]octan-2-yl)-1,2,4-oxadiazole-3-carboxamide] | 1000 to 10000 nM
14 | CC(C)N1CCN(CC2CCN(c3nc(-c4cnn(C)c4)cn4nccc34)CC2)C(=O)C1 [Example 173, 4-isopropyl-1-((1-(6-(1-methyl-1H-pyrazol-4-yl)pyrazolo[1,5-a]pyrazin-4-yl)piperidin-4-yl)methyl)piperazin-2-one] | 1000 to 10000 nM

Continued, values first:

Row | IC50 | Structure (SMILES)
15 | 10 to 1000 nM | Cn1cc(-c2cn3nccc3c(-c3ccc(CNC(=O)c4ccn(C(C)(C)C)n4)cc3F)n2)cn1 [Example 111, 1-(tert-butyl)-N-(3-fluoro-4-(6-(1-methyl-1H-pyrazol-4-yl)pyrazolo[1,5-a]pyrazin-4-yl)benzyl)-1H-pyrazole-3-carboxamide]
16 | 10 to 1000 nM | Cn1cc(-c2cn3nccc3c(N3CCC(C)(CNC(=O)c4nnn(C(C)(C)C)n4)C3)n2)cn1 (centres unmarked) [Example 48, 2-(tert-butyl)-N-((3-methyl-1-(6-(1-methyl-1H-pyrazol-4-yl)pyrazolo[1,5-a]pyrazin-4-yl)pyrrolidin-3-yl)methyl)-2H-tetrazole-5-carboxamide]
17 | 10 to 1000 nM | C[C@H]1C[C@@H](CNC(=O)c2cn(C(C)(C)C)nn2)CCN1c1nc(-c2cnn(C)c2)cn2nccc12 (single isomer, unassigned) [Example 142]
18 | 1000 to 10000 nM | Cn1cc(-c2cn3nccc3c(N3CCC4(CC(NC(=O)c5noc(C(C)(C)C)n5)C4)C3)n2)cn1 (centres unmarked) [Example 52, 5-(tert-butyl)-N-(6-(6-(1-methyl-1H-pyrazol-4-yl)pyrazolo[1,5-a]pyrazin-4-yl)-6-azaspiro[3.4]octan-2-yl)-1,2,4-oxadiazole-3-carboxamide]
19 | 10 to 1000 nM | CC(C)(C)n1cc(C(=O)NCc2ccc(-c3nc(N4CCOCC4)cn4nccc34)cc2)nn1 [Example 26, 1-(tert-butyl)-N-(4-(6-morpholinopyrazolo[1,5-a]pyrazin-4-yl)benzyl)-1H-1,2,3-triazole-4-carboxamide]
20 | 10 to 1000 nM | Cn1cc(-c2cc(-c3ccc(CNC(=O)c4cnn(C(C)(C)C)c4)cc3)n3cnnc3c2)cn1 [Example 77, 1-(tert-butyl)-N-(4-(7-(1-methyl-1H-pyrazol-4-yl)-[1,2,4]triazolo[4,3-a]pyridin-5-yl)benzyl)-1H-pyrazole-4-carboxamide]
21 | 1000 to 10000 nM | CN1CCN(CC2CCN(c3nc(-c4cnn(C)c4)cn4nccc34)CC2)C(=O)C1 [Example 171, 4-methyl-1-((1-(6-(1-methyl-1H-pyrazol-4-yl)pyrazolo[1,5-a]pyrazin-4-yl)piperidin-4-yl)methyl)piperazin-2-one]
22 | 1 to 10 nM | CC(C)(C)c1nc(C(=O)NCc2ccc(-c3nc(N4CCC4)cn4nccc34)cc2)no1 [Example 134, N-(4-(6-(azetidin-1-yl)pyrazolo[1,5-a]pyrazin-4-yl)benzyl)-5-(tert-butyl)-1,2,4-oxadiazole-3-carboxamide]
23 | < 1 nM | Cc1cc(-c2nc(-c3cnn(C4COC4)c3)cn3nccc23)ccc1CNC(=O)c1noc(C(C)(C)C)n1 [Example 55, 5-(tert-butyl)-N-(2-methyl-4-(6-(1-(oxetan-3-yl)-1H-pyrazol-4-yl)pyrazolo[1,5-a]pyrazin-4-yl)benzyl)-1,2,4-oxadiazole-3-carboxamide]
